Experimental findings from patent US20180200315A1, “CANNABINOID AND CAFFEINE EMULSIFICATIONS” (priority 2016, published 2018) are described below.

The nature of this series: Emulsifier experiments with coconut oils and water (Example 2). The following applies: tested as emulsifying agents; solid and liquid (MCT) coconut oils. It counts as physicochemical. The method, then:
Several experiments were run using several different emulsifiers and combinations of different coconut oils: solid and liquid (MCT). (Note: liquid MCT is coconut oil that has medium chain triglyceride). Guar gum, lecithin, and cyclodextrin were tested as emulsifying agents and provided good results.

As for cyclodextrin, the “emulsification of the oil and water” value is “good results”.
